Experiments:
D(2) dopamine receptor = D(2) dopamine receptor (Rattus norvegicus, UniProt P61169); experiment: The affinity for the Dopamine receptor D2 was assessed by the inhibition of [3H]-spiperone binding in rat striatal membranes in vitro.; type: cell membranes, Membrane
Rattus norvegicus [1] = experiment: Stereotypies was scored by regression analysis, through intraperitoneal route of administration; type: functional; settings: ip
Rattus norvegicus [2] = experiment: Hyperactivity by regression analysis, through intraperitoneal route of administration; type: functional; settings: ip

Chain of D(2) dopamine receptor (P61169 whole entry): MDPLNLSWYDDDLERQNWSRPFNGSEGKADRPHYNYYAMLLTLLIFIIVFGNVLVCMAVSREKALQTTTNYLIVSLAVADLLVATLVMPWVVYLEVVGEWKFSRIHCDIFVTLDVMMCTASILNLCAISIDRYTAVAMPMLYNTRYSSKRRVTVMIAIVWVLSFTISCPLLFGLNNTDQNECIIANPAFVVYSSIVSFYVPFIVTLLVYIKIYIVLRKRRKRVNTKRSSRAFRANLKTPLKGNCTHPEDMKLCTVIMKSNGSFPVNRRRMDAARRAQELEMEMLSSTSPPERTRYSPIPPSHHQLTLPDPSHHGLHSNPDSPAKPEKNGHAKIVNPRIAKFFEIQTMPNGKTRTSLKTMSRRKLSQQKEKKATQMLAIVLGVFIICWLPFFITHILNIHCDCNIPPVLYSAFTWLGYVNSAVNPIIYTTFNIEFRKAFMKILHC

Compound | IC50 (D(2) dopamine receptor) | ED50 (Rattus norvegicus [1]) | ED50 (Rattus norvegicus [2])
COc1cccc(C(=O)NC2CC3CCC(C2)N3Cc2ccccc2)c1OC (stereo unspecified) | 1.7 nM | 0.043 µmol/kg | 0.016 µmol/kg
CCN1CCC[C@H]1CNC(=O)c1c(O)c(Cl)cc(Cl)c1OC [RACLOPRIDE] |  | 1.8 µmol/kg | 0.13 µmol/kg
CCN1CCCC1CNC(=O)c1cc(Br)c(OC)cc1OC (stereo unspecified) | 44 nM | 10.7 µmol/kg | 3.2 µmol/kg
CCN1CCCC1CNC(=O)c1cc(Br)cc(O)c1OC (stereo unspecified) | 10 nM | 2.1 µmol/kg | 1.2 µmol/kg
CCN1CCCC1CNC(=O)c1cc(Br)cc(OC)c1O (stereo unspecified) | 8210 nM |  | 
CCN1CCC[C@H]1CNC(=O)c1c(O)c(Br)cc(OC)c1OC |  | 0.049 µmol/kg | 0.009 µmol/kg
CCN1CCC[C@H]1CNC(=O)c1c(OC)ccc(Br)c1O |  | 0.32 µmol/kg | 0.054 µmol/kg
CCN1CCC[C@@H]1CNC(=O)c1cc(Br)cc(OC)c1OC | 145 nM | > 20 µmol/kg | > 20 µmol/kg
COc1cc(Br)cc(C(=O)NC2CCN(Cc3ccccc3)CC2)c1OC | 5 nM | 0.24 µmol/kg | 0.28 µmol/kg
CCN1CCC[C@H]1CNC(=O)c1cc(Br)cc2c1OCC2 |  | 4.7 µmol/kg | 2 µmol/kg
CCN1CCCC1CNC(=O)c1cccc(OC)c1OC (stereo unspecified) | 52 nM | ~10 µmol/kg | ~10 µmol/kg
CCN1CCCC1CNC(=O)c1cc(Br)ccc1OC (stereo unspecified) | 46 nM | 6.7 µmol/kg | 3 µmol/kg
CCN1CCC[C@H]1CNC(=O)c1cc(Br)cc2c1OCCO2 | 46 nM | 12.8 µmol/kg | 3.8 µmol/kg
CCN1CCC[C@H]1CNC(=O)c1cc(Br)cc(OC)c1OC | 1.2 nM | 0.14 µmol/kg | 0.002 µmol/kg
